Assay results from patent publication US12370183B2, “Compositions and methods for treating malaria” (Rutgers, The State University of New Jersey, priority 2020, dated 2025).
Like-named read-outs stand apart in the source and are kept apart here.

Legend:
[1] = tested on: 3D7 strain of Plasmodium falciparum; test: Potency in the 3D7 strain of Plasmodium falciparum (EC50); assay type: cell-based; settings: Plasmodium falciparum
Description: The present invention relates to methods of treating malaria with tetrahydrobenzonaphtyridine carboxanilide (TBN) derivatives and related pyrrolinones and hydrolysis products thereof. These compounds are active against Plasmodium falciparum strains that are resistant to multiple drugs currently on the market. The present invention further relates to novel compounds and pharmaceutical compositions comprising such compounds. The compounds have been synthesized and tested for their potency in the 3D7 strain of Plasmodium falciparum. Their cytotoxicity was also tested in the BJ human fibroblast line. No compounds show significant cytotoxicity.
(§1) A high-throughput screen performed against the Plasmodium parasite. About 8,000 compounds were screened. Each hit was tested against resistant P. falciparum variants K1, V1S, D10DD, ATP4 1247, and C2B. Potency against these assays assured that the chemotype acts through a mechanism distinct from that of halofantrine, chloroquine, mefloquine, pyrimethamine, proguanil, atovaquone, and (+)SJ733. The toxicity of the compounds was also measured by testing their lethality against a BJ cell line (human fibroblasts). No TBNs were toxic. A structure activity investigation was performed in order to improve the EC50 of the TBNs to the single-digit nanomolar range, as well as to increase the water solubility.
(§2) Substituents were installed at N−2 by using a variety of methods. Reductive alkylation (Abdel-Magid, A. F.; Mehrman, S. J. A Review on the Use of Sodium Triacetoxyborohydride in the Reductive Amination of Ketones and Aldehydes. Org. Process Res. Dev. 2006, 10 (5), 971-1031) was a dependable technique that produced over fifteen analogues. Conjugate additions and nucleophilic substitutions provided most of the others. A type of reductive alkylation that uses carboxylic acids instead of aldehydes (the Beller reduction) led to two analogues (Sorribes, I.; Junge, K.; Beller, M. Direct Catalytic N-Alkylation of Amines with Carboxylic Acids. J. Am. Chem. Soc. 2014, 136 (40), 14314-14319. Some of the compounds listed were synthesized through other means, or were derived from other TBNs. Compounds 66 and 128 were produced by the amidation of acids 132 and 133, which had the corresponding substitution already installed. TBNs 93, and 94 were produced from the Pfitzinger products formed from the condensation of isatin with (R)-1-(1-phenylethyl)piperidin-4-one (134) and (S)-1-(1-phenylethyl)piperidin-4-one (135), respectively.

[2] = tested on: resistant P. falciparum variant K1; test: Potency against resistant P. falciparum variant K1 (EC50); assay type: cell-based; settings: Plasmodium falciparum, K1, read-out: K1 EC50 (μM)
Method: as §1, §2

[3] = 3D7, read-out: 3D7 Mean EC50 (μM)
[4] = 3D7, read-out: 3D7 Mean EC50 of the TBN (μM)

With CN(C)CCN1CCc2nc3ccccc3c(C(=O)Nc3ccc(F)c(F)c3)c2C1 [Compound 124, N-(3,4-Difluorophenyl)-2-(2-(dimethylamino)ethyl)-1,2,3,4-tetrahydrobenzo[b][1,6]naphthyridine-10-carboxamide] the EC50 [1, 3] was 8.54 ± 1.84 µM and the EC50 [2] was > 19.2 µM.

In the case of O=C(Nc1ccc(F)c(F)c1)c1c2c(nc3ccccc13)CCN(Cc1ccccn1)C2 [Compound 105, N-(3,4-Difluorophenyl)-2-(pyridin-2-ylmethyl)-1,2,3,4-tetrahydrobenzo[b][1,6]naphthyridine-10-carboxamide], the EC50 [1, 3] is reported as 0.456 ± 0.0964 µM and the EC50 [2] is reported as 0.129 µM.

CC(c1ncccn1)N1CCc2nc3ccccc3c(C(=O)Nc3ccc(F)c(F)c3)c2C1 (stereo not drawn) [Compound 104, N-(3,4-Difluorophenyl)-2-(1-(pyrimidin-2-yl)ethyl)-1,2,3,4-tetrahydrobenzo[b][1,6]naphthyridine-10-carboxamide] showed an EC50 [1, 3] of 0.453 ± 0.238 µM and an EC50 [2] of 0.117 ± 0.0339 µM.

For O=C(O)CCN1CCc2nc3ccccc3c(C(=O)Nc3ccc(F)c(F)c3)c2C1 [Compound 131, 3-(10-((3,4-Difluorophenyl)carbamoyl)-3,4-dihydrobenzo[b][1,6]naphthyridin-2(1H)-yl)propanoic acid], the EC50 [1, 3] was > 19.2 µM and the EC50 [2] was > 19.2 µM.

For O=C(Nc1ccc(F)c(F)c1)c1c2c(nc3ccccc13)CCN(CCO)C2 [Compound 120, N-(3,4-Difluorophenyl)-2-(2-hydroxyethyl)-1,2,3,4-tetrahydrobenzo[b][1,6]naphthyridine-10-carboxamide], the EC50 [1, 3] was 3.84 ± 2.08 µM and the EC50 [2] was 2.2 ± 0.268 µM.

C[C@@H](c1ccccc1)N1CCc2nc3ccccc3c(C(=O)Nc3ccc(F)c(F)c3)c2C1 [Compound 94, (S)—N-(3,4-Difluorophenyl)-2-(1-phenylethyl)-1,2,3,4-tetrahydrobenzo[b][1,6]naphthyridine-10-carboxamide] was tested, and the EC50 [1, 3] was 0.154 ± 0.0285 µM and the EC50 [2] was 0.148 µM.

In the case of CCOCCN1CCc2nc3ccccc3c(C(=O)Nc3ccc(F)c(F)c3)c2C1 [Compound 103, N-(3,4-Difluorophenyl)-2-(2-ethoxyethyl)-1,2,3,4-tetrahydrobenzo[b][1,6]naphthyridine-10-carboxamide], the EC50 [1, 3] is reported as 0.451 ± 0.416 µM and the EC50 [2] is reported as 0.0391 µM.

In the case of O=C(Nc1ccc(F)c(F)c1)c1c2c(nc3ccccc13)CCN(Cc1cccnc1)C2 [Compound 106, N-(3,4-Difluorophenyl)-2-(pyridin-3-ylmethyl)-1,2,3,4-tetrahydrobenzo[b][1,6]naphthyridine-10-carboxamide], the EC50 [1, 3] is reported as 0.475 ± 0.163 µM and the EC50 [2] is reported as 0.236 µM.

Work on CC(C)N1CCc2nc3ccccc3c(C(=O)Nc3ccc(F)c(F)c3)c2C1 [Compound 96, N-(3,4-Difluorophenyl)-2-isopropyl-1,2,3,4-tetrahydrobenzo[b][1,6]naphthyridine-10-carboxamide] yielded an EC50 [1, 3] of 0.215 ± 0.269 µM and an EC50 [2] of 0.177 µM.

For CC(C)CN1CCc2nc3ccccc3c(C(=O)Nc3ccc(F)c(F)c3)c2C1 [Compound 95, N-(3,4-Difluorophenyl)-2-isobutyl-1,2,3,4-tetrahydrobenzo[b][1,6]naphthyridine-10-carboxamide], the EC50 [1, 3] was 0.154 ± 0.162 µM and the EC50 [2] was 0.121 µM.

O=C(Nc1ccc(F)c(F)c1)c1c2c(nc3ccccc13)CCN(CCCC(F)(F)F)C2 [Compound 108, N-(3,4-Difluorophenyl)-2-(4,4,4-trifluorobutyl)-1,2,3,4-tetrahydrobenzo[b][1,6]naphthyridine-10-carboxamide] gave an EC50 [1, 3] of 0.665 ± 0.734 µM and an EC50 [2] of 0.241 µM.

O=C(Nc1ccc(F)c(F)c1)c1c2c(nc3c1CN(Cc1ccccc1)CC3)CCCC2 [Compound 137, 2-Benzyl-N-(3,4-difluorophenyl)-1,2,3,4,6,7,8,9-octahydrobenzo[b][1,6]naphthyridine-10-carboxamide] was tested, and the EC50 [1, 3] was 0.0949 ± 0.0266 µM, the EC50 [1, 4] was > 3.49 µM and the EC50 [2] was 0.279 µM.

O=C(Nc1ccc(F)c(F)c1)c1c2c(nc3ccccc13)CCN(CCCO)C2 [Compound 122, N-(3,4-Difluorophenyl)-2-(3-hydroxypropyl)-1,2,3,4-tetrahydrobenzo[b][1,6]naphthyridine-10-carboxamide] gave an EC50 [1, 3] of 6.81 ± 2.54 µM and an EC50 [2] of 4.64 ± 1.55 µM.

For O=C(Nc1ccc(F)c(F)c1)c1c2c(nc3ccccc13)CCN(CC1CC1)C2 [Compound 101, 2-(Cyclopropylmethyl)-N-(3,4-difluorophenyl)-1,2,3,4-tetrahydrobenzo[b][1,6]naphthyridine-10-carboxamide], the EC50 [1, 3] was 0.429 ± 0.303 µM and the EC50 [2] was 0.272 µM.

With CC(C)(O)CCN1CCc2nc3ccccc3c(C(=O)Nc3ccc(F)c(F)c3)c2C1 [Compound 116, N-(3,4-Difluorophenyl)-2-(3-hydroxy-3-methylbutyl)-1,2,3,4-tetrahydrobenzo[b][1,6]naphthyridine-10-carboxamide] the EC50 [1, 3] was 2.01 ± 0.277 µM and the EC50 [2] was 1.44 ± 0.337 µM.

Compound O=C(Nc1ccc(F)c(F)c1)c1c2c(nc3ccccc13)CCN(CCc1ccccc1)C2 [Compound 91, N-(3,4-Difluorophenyl)-2-phenethyl-1,2,3,4-tetrahydrobenzo[b][1,6]naphthyridine-10-carboxamide] has an EC50 [1, 3] of 0.117 ± 0.102 µM and an EC50 [2] of 0.0839 µM.

In the case of O=C(Nc1ccc(F)c(F)c1)c1c2c(nc3ccccc13)CCN(Cc1ccncc1)C2 [Compound 111, N-(3,4-Difluorophenyl)-2-(pyridin-4-ylmethyl)-1,2,3,4-tetrahydrobenzo[b][1,6]naphthyridine-10-carboxamide], the EC50 [1, 3] is reported as 0.983 ± 0.133 µM and the EC50 [2] is reported as 0.647 µM.

In the case of CCN1CCc2nc3c(c(C(=O)Nc4ccc(F)c(F)c4)c2C1)CCCC3 [Compound 138, N-(3,4-Difluorophenyl)-2-ethyl-1,2,3,4,6,7,8,9-octahydrobenzo[b][1,6]naphthyridine-10-carboxamide], the EC50 [1, 3] is reported as 0.715 ± 0.29 µM, the EC50 [1, 4] is reported as > 12.2 µM and the EC50 [2] is reported as 0.64 µM.

CC(c1ccccn1)N1CCc2nc3c(c(C(=O)Nc4ccc(F)c(F)c4)c2C1)CCCC3 (stereo not drawn) [Compound 140, N-(3,4-Difluorophenyl)-2-(1-(pyridin-2-yl)ethyl)-1,2,3,4,6,7,8,9-octahydrobenzo[b][1,6]naphthyridine-10-carboxamide] showed an EC50 [1, 3] of 1.5 ± 0.389 µM, an EC50 [1, 4] of 0.0603 ± 0.0234 µM and an EC50 [2] of 0.558 ± 0.123 µM.

Work on O=C(Nc1ccc(F)c(F)c1)c1c2c(nc3ccccc13)CCN(Cc1cccc(F)c1)C2 [Compound 100, N-(3,4-Difluorophenyl)-2-(3-fluorobenzyl)-1,2,3,4-tetrahydrobenzo[b][1,6]naphthyridine-10-carboxamide] yielded an EC50 [1, 3] of 0.412 ± 0.291 µM and an EC50 [2] of 0.161 µM.

For COC(=O)C(C)CN1CCc2nc3ccccc3c(C(=O)Nc3ccc(F)c(F)c3)c2C1 (stereo not drawn) [Compound 97, Methyl 3-(10-((3,4-difluorophenyl)carbamoyl)-3,4-dihydrobenzo[b][1,6]naphthyridin-2(1H)-yl)-2-methylpropanoate], the EC50 [1, 3] was 0.328 ± 0.17 µM and the EC50 [2] was 0.185 µM.

NCCN1CCc2nc3ccccc3c(C(=O)Nc3ccc(F)c(F)c3)c2C1 [Compound 129, 2-(2-Aminoethyl)-N-(3,4-difluorophenyl)-1,2,3,4-tetrahydrobenzo[b][1,6]naphthyridine-10-carboxamide] gave an EC50 [1, 3] of 14.5 ± 4.73 µM and an EC50 [2] of 9.46 ± 0.982 µM.

CN(C)CCCN1CCc2nc3ccccc3c(C(=O)Nc3ccc(F)c(F)c3)c2C1 [Compound 126, N-(3,4-Difluorophenyl)-2-(3-(dimethylamino)propyl)-1,2,3,4-tetrahydrobenzo[b][1,6]naphthyridine-10-carboxamide] was tested, and the EC50 [1, 3] was 9.46 ± 2.17 µM and the EC50 [2] was > 19.2 µM.

CS(=O)(=O)CCN1CCc2nc3ccccc3c(C(=O)Nc3ccc(F)c(F)c3)c2C1 [Compound 130, N-(3,4-Difluorophenyl)-2-(2-(methylsulfonyl)ethyl)-1,2,3,4-tetrahydrobenzo[b][1,6]naphthyridine-10-carboxamide] was tested, and the EC50 [1, 3] was > 14.7 µM.

Work on CC(C)(C)OC(=O)N1CCC(N2CCc3nc4ccccc4c(C(=O)Nc4ccc(F)c(F)c4)c3C2)CC1 [Compound 89, tert-Butyl 4-(10-((3,4-difluorophenyl)carbamoyl)-3,4-dihydrobenzo[b][1,6]naphthyridin-2(1H)-yl)piperidine-1-carboxylate] yielded an EC50 [1, 3] of 0.0257 ± 0.00583 µM.

O=C(Nc1ccc(F)c(F)c1)c1c2c(nc3ccccc13)CCNC2 [Compound 88, N-(3,4-Difluorophenyl)-1,2,3,4-tetrahydrobenzo[b][1,6]naphthyridine-10-carboxamide] showed an EC50 [1, 3] of 10.3 ± 10.2 µM.

O=C(Nc1ccc(F)c(F)c1)c1c2c(nc3ccccc13)CCN(Cc1cncc(F)c1)C2 [Compound 115, N-(3,4-Difluorophenyl)-2-((5-fluoropyridin-3-yl)methyl)-1,2,3,4-tetrahydrobenzo[b][1,6]naphthyridine-10-carboxamide] showed an EC50 [1, 3] of 1.96 ± 2.34 µM.

O=C(Nc1ccc(F)c(F)c1)c1c2c(nc3ccccc13)CCN(CC(F)(F)F)C2 [Compound 123, N-(3,4-Difluorophenyl)-2-(2,2,2-trifluoroethyl)-1,2,3,4-tetrahydrobenzo[b][1,6]naphthyridine-10-carboxamide] was tested, and the EC50 [1, 3] was 7.69 ± 8.61 µM.
